Results reported in ChEMBL document CHEMBL4390668, “Discovery and Structural Optimization of Acridones as Broad-Spectrum Antimalarials” (J Med Chem, 2019).
Calls of active or inactive are those of the source. No cut-off for these calls is given here.

Columns and labels:
[1] = Apparent elimination half life in ICR mouse plasma at 80 mg/kg, po administered as single dose; format: ADME, organism-based; conditions: for half-life: ICR, plasma, read-out: betat1/2(app) (converted)
[2] = test system: Plasmodium falciparum; assay: Antimalarial activity against drug-resistant Plasmodium falciparum Dd2 harboring M133I/A138T double mutant infected in human erythrocytes after 72 hrs by SYBR green 1-based fluorescence assay; format: functional, organism-based; conditions: Dd2, 72 h
[3] = molecular target: hERG (KCNH2) (Homo sapiens, UniProt Q12809); assay: Inhibition of human ERG expressed in CHOK1 cells at 10 uM by automated patch clamp method relative to control; format: cell-based; conditions: CHO-K1 cells that express hERG
[4] = test system: Plasmodium falciparum; assay: Antimalarial activity against drug-resistant Plasmodium falciparum Dd2 harboring V259L mutant infected in human erythrocytes after 72 hrs by SYBR green 1-based fluorescence assay; format: functional, organism-based; conditions: Dd2, 72 h
[5] = Tmax in ICR mouse liver at 80 mg/kg, po administered as single dose; format: ADME, organism-based
[6] = Toxicity in CF1 mouse infected with blood stage Plasmodium yoelii MR4 MRA-428 assessed as behavioral changes at 80 mg/kg, po administered once daily via gavage for 4 days starting from for 4 days starting from 24 hrs post-infection and measured daily during compound dosing; format: organism-based; conditions: in vivo
[7] = test system: Plasmodium falciparum; assay: Antimalarial activity against atovaquone-resistant Plasmodium falciparum Tm90-C2B infected in human erythrocytes by SYBR green 1-based fluorescence assay; format: functional, organism-based
[8] = Mutagenicity in Salmonella typhimurium TA98 assessed as increase in revertant colonies up to 10 uM in absence of S9 fraction by Ames test; format: toxicity; conditions: salmonella enterica subsp. enterica serovar typhimurium
[9] = Mean residence time in ICR mouse plasma at 80 mg/kg, po administered as single dose; format: ADME, organism-based
[10] = Cmax in ICR mouse plasma at 80 mg/kg, po administered as single dose; format: ADME, organism-based; parameters: dose 80 mg/kg, route oral
[11] = test system: Plasmodium falciparum; assay: Inhibition of Plasmodium falciparum cytochrome b-c1
[12] = Tmax in ICR mouse plasma at 80 mg/kg, po administered as single dose; format: ADME, organism-based
[13] = test system: Plasmodium falciparum; assay: Antimalarial activity against drug-resistant Plasmodium falciparum 3D7 harboring A82T/V259L double mutant infected in human erythrocytes after 72 hrs by SYBR green 1-based fluorescence assay; format: functional, organism-based; conditions: 3D7, 72 h
[14] = AUC (0 to last) in ICR mouse plasma at 80 mg/kg, po administered as single dose; format: ADME, organism-based; parameters: dose 80 mg/kg, route oral, time 0 - last
[15] = test system: Plasmodium berghei; assay: Antimalarial activity against luciferase-expressing Plasmodium berghei ANKA 676m1cl1 sporozoites infected in human HepG2A16 cells measured after 45 hrs by luciferase-luciferin based reporter assay; format: functional, organism-based; conditions: ANKA 676m1cl1, HepG2A16, 45 h
[16] = test system: Plasmodium falciparum; assay: Antimalarial activity against multidrug-resistant Plasmodium falciparum Dd2 infected in human erythrocytes by SYBR green 1-based fluorescence assay; format: functional, organism-based
[17] = Mean residence time in ICR mouse liver at 80 mg/kg, po administered as single dose; format: ADME, organism-based
[18] = test system: HepG2; assay: Cytotoxicity against human HepG2 cells measured after 24 to 36 hrs by resazurin dye based fluorescence assay; format: cell-based
[19] = Apparent elimination half life in ICR mouse liver at 80 mg/kg, po administered as single dose; format: ADME, organism-based; conditions: read-out: betat1/2(app) (converted)
[20] = AUC (0 to last) in ICR mouse liver at 80 mg/kg, po administered as single dose; format: ADME, organism-based; parameters: dose 80 mg/kg, route oral, time 0 - last
[21] = test system: Plasmodium falciparum; assay: Antimalarial activity against chloroquine-sensitive Plasmodium falciparum D6 infected in human erythrocytes by SYBR green 1-based fluorescence assay; format: functional, organism-based
[22] = Cmax in ICR mouse liver at 80 mg/kg, po administered as single dose; format: ADME, organism-based; parameters: dose 80 mg/kg, route oral
[23] = test system: Plasmodium berghei; assay: (§1) Antimalarial activity against blood stage luciferase-expressing Plasmodium berghei ANKA 676m1cl1 sporozoites infected in C57BL/6 mouse assessed as suppression of parasitemia at 10 mg/kg, po pretreated for 1 day followed by parasite infection and subsequent compound dosing for 2 days measured up to 30 days post-infection by YOYO1 staining based flow cytometry; format: functional
[24] = Half life in mouse liver microsomes at 1 uM by LC-MS analysis; format: ADME, Microsome
[25] = Mutagenicity in Salmonella typhimurium TA98 assessed as increase in revertant colonies up to 10 uM in presence of S9 fraction by Ames test; format: toxicity, subcellular; conditions: salmonella enterica subsp. enterica serovar typhimurium
[26] = Mutagenicity in Salmonella typhimurium TA100 assessed as increase in revertant colonies up to 10 uM in presence of S9 fraction by Ames test; format: toxicity, subcellular; conditions: salmonella enterica subsp. enterica serovar typhimurium
[27] = test system: Plasmodium yoelii; assay: (§2) Antimalarial activity against blood stage Plasmodium yoelii MR4 MRA-428 infected in CF1 mouse assessed as suppression of parasitemia administered once daily via oral gavage for 4 days starting from 24 hrs post-infection and measured post-last dose by Giemsa-staining based microscopic analysis; format: functional
[28] = Apparent volume of distribution in ICR mouse plasma at 80 mg/kg, po administered as single dose; format: ADME, organism-based; conditions: in vivo
[29] = test system: Plasmodium falciparum; assay: Antimalarial activity against Plasmodium falciparum 3D7 infected in human erythrocytes after 72 hrs by SYBR green 1-based fluorescence assay; format: functional, organism-based; conditions: 3D7, 72 h
[30] = Half life in human liver microsomes at 1 uM by LC-MS analysis; format: ADME, Microsome
[31] = Toxicity in CF1 mouse infected with blood stage Plasmodium yoelii MR4 MRA-428 assessed as clinical toxicity at 80 mg/kg, po administered once daily via gavage for 4 days starting from for 4 days starting from 24 hrs post-infection and measured daily during compound dosing; format: organism-based; conditions: in vivo
[32] = Selectivity index, ratio of IC50 for human HepG2 cells to IC50 for chloroquine-sensitive Plasmodium falciparum D6 infected in human erythrocytes; format: toxicity, cell-based; conditions: read-out: Ratio IC50
[33] = Mutagenicity in Salmonella typhimurium TA100 assessed as increase in revertant colonies up to 10 uM in absence of S9 fraction by Ames test; format: toxicity; conditions: salmonella enterica subsp. enterica serovar typhimurium
[34] = AUC (0 to infinity) in ICR mouse liver at 80 mg/kg, po administered as single dose; format: ADME, organism-based; parameters: dose 80 mg/kg, route oral, time infinity
[35] = test system: Plasmodium falciparum; assay: Antimalarial activity against multidrug-resistant Plasmodium falciparum 7G8 infected in human erythrocytes by SYBR green 1-based fluorescence assay; format: functional, organism-based
[36] = AUC (0 to infinity) in ICR mouse plasma at 80 mg/kg, po administered as single dose; format: ADME, organism-based; parameters: dose 80 mg/kg, route oral, time infinity; conditions: for AUC(0-inf): ICR, plasma
[37] = test system: Plasmodium yoelii; assay: as §2, with “parasitemia at 80 mg/kg, po” for “parasitemia”, “via” for “via oral”, “at weekly intervals for 28 days” for “post-last dose”; format: functional
[38] = test system: Plasmodium berghei; assay: as §1, with “against liver” for “against blood”, “measured at 24” for “measured up”, “to 48 hrs” for “to 30 days”, “by luciferin-based real-time imaging analysis” for “by YOYO1 staining based flow cytometry”; format: functional
[39] = Apparent clearance in ICR mouse plasma at 80 mg/kg, po administered as single dose; format: ADME, organism-based; conditions: read-out: CL(app) (converted)
[40] = test system: Plasmodium falciparum; assay: Antimalarial activity against drug-resistant Plasmodium falciparum Dd2 harboring M133I mutant infected in human erythrocytes after 72 hrs by SYBR green 1-based fluorescence assay; format: functional, organism-based; conditions: Dd2, 72 h
[41] = test system: Plasmodium berghei; assay: Antimalarial activity against liver stage luciferase-expressing Plasmodium berghei ANKA 676m1cl1 sporozoites infected in C57BL/6 mouse assessed as suppression of parasitemia at 40 to 160 mg/kg, po pretreated for 1 day followed by parasite infection and subsequent compound dosing for 2 days measured at 24 to 48 hrs post-infection by luciferin-based real-time imaging analysis; format: functional

Chain of hERG (KCNH2) (Q12809 whole entry): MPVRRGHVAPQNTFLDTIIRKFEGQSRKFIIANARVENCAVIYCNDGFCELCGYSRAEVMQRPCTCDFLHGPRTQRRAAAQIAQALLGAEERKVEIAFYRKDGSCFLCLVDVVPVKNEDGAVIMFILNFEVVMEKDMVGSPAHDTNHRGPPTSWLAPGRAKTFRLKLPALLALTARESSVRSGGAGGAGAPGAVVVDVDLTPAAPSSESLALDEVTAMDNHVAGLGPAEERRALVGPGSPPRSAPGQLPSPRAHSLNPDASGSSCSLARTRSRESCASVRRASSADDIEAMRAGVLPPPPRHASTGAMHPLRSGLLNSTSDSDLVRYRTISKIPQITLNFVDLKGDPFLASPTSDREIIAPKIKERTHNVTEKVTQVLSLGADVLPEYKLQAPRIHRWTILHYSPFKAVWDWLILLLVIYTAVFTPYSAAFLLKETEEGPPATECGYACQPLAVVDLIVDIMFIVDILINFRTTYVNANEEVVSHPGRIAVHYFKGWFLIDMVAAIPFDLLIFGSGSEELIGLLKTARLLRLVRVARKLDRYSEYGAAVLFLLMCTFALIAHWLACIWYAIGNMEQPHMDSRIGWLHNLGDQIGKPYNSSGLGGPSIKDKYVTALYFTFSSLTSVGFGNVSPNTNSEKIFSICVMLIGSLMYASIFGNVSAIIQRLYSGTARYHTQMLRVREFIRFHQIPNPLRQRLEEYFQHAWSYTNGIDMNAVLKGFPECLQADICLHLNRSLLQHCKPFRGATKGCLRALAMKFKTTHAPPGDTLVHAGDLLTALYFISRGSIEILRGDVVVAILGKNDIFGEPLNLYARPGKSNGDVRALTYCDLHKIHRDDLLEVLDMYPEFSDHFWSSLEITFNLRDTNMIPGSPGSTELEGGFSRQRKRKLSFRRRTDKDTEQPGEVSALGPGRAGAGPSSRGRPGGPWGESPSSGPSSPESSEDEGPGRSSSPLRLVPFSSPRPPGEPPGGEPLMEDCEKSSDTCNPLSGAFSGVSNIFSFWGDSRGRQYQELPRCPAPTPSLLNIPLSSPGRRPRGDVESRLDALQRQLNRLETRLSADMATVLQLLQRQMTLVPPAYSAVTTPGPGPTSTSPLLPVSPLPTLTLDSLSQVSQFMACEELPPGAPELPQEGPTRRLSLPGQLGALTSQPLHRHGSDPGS

Compound	IC50 [2] [nM]	IC50 [4] [nM]	Tmax [5] [h]	IC50 [7] [nM]	MRT [9] [h]	inhibition [11]	IC50 [13] [nM]	AUC(0-t) [14] [µg·h/mL]	IC50 [15] [nM]	IC50 [16] [nM]	MRT [17] [h]	IC50 [18] [nM]	half-life [19] [h]	AUC(0-t) [20] [µg·h/mL]	IC50 [21] [nM]	Cmax [22] [ng/mL]	half-life at 1 µM [24] [h]	ED50 [27] [mg/kg.day]	Vz [28] [L/kg]	IC50 [29] [nM]	also measured
CCCN(CCC)CCOc1ccc2c(=O)c3c(F)cc(F)cc3[nH]c2c1	0.86	5.5	7	6.8	10.2	inactive	17	7.56	1.4	0.0003 to 0.23	8.9	42800	13.8	63.9	0.0003	3930	0.25	1.12	657.604	0.3	betat1/2(app) ([1]; in vivo): 54.24 h; inhibition at 10 µM [3]: 65%; Activity [6]: Non-Toxic; Activity [8]: Non-Toxic; Cmax ([10]; in vivo): 99 ng/mL; Tmax ([12]; in vivo): 7 h; Activity [23]: 100%; Activity [25]: Non-Toxic; Activity [26]: Non-Toxic; half-life at 1 µM [30]: 0.267 h; Activity [31]: Non-Toxic; selectivity ratio [32]: > 100000; Activity [33]: Non-Toxic; AUC(0-inf) [34]: 102 µg·h/mL; IC50 [35]: 0.0003 nM; AUC ([36]; in vivo): 56.485 µg·h/mL; Activity [37]: 100%; Activity [38]: 100%
CCCN(CCC)CCOc1ccc2c(=O)c3c(Cl)c(Cl)ccc3[nH]c2c1	50	216	7	142	4.69	inactive	79	3.84	1.1	0.05 to 9	6.07	41600	1.84	547	0.17	42300	0.283	1.04	58.684	–	half-life [1]: 2.29 h; inhibition at 10 µM [3]: 25%; Activity [6]: Non-Toxic; Activity [8]: Non-Toxic; Cmax ([10]; ICR, plasma, read-out: Cmax): 631 ng/mL; Tmax ([12]; ICR, plasma, read-out: Tmax): 5.5 h; CL/F [39]: 295 mL/min/kg; Activity [23]: 100%; Activity [25]: Non-Toxic; Activity [26]: Non-Toxic; ED90 [27]: 1.14 mg/kg.day; half-life at 1 µM [30]: 0.183 h; Activity [31]: Non-Toxic; selectivity ratio [32]: 245000; Activity [33]: Non-Toxic; AUC(0-inf) [34]: 547 µg·h/mL; IC50 [35]: 0.3 nM; AUC(0-inf) [36]: 4.52 µg·h/mL; Activity [37]: 100%; Activity [38]: 100%
CCCCN(CCCC)CC(O)c1cc(Cl)cc2c1-c1ccc(Cl)cc1/C2=C/c1ccc(Cl)cc1 (stereo not given) [LUMEFANTRINE]	3.6	6.5	–	–	–	inactive	4.5	–	–	5.7	–	–	–	–	–	–	–	–	–	3	IC50 [40]: 3.6 nM
CCN(CC)CCOc1ccc2c(=O)c3ccc(Cl)cc3[nH]c2c1	1070	2120	1	589	3.41	inactive	1640	5.31	113	41 to 117	5.59	36400	6.7	1460	32	193000	> 1	48	37.689	84	half-life [1]: 1.9 h; Activity [41]: 100%; Cmax ([10]; ICR, plasma, read-out: Cmax): 1360 ng/mL; Tmax ([12]; ICR, plasma, read-out: Tmax): 2 h; CL/F [39]: 230 mL/min/kg; ED90 [27]: 72 mg/kg.day; half-life at 1 µM [30]: > 1 h; selectivity ratio [32]: 1140; AUC(0-inf) [34]: 1460 µg·h/mL; IC50 [35]: 38 nM; AUC(0-inf) [36]: 5.81 µg·h/mL
